Test results as given in ChEMBL document CHEMBL1201862, “PubChem BioAssay data set” (2004).
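A five-concentration, 48-hour dose response in 96-well plates underlies each endpoint, interpolated linearly between surrounding concentrations. GI50: concentration for 50% inhibition of growth.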 Activity calls are given as the source filed them. Cut-off read from the data, not from the text of the source: active = GI50 up to about 1.1 µM and inactive = higher.

How the values were obtained:
Assay in all cases: inhibition of tumour cell growth, NCI panel, 48 h
786-0 = tested on: 786-0
HL-60 = tested on: HL-60
HOP-92 = tested on: HOP-92
KM12 = tested on: KM12
LOX IMVI = tested on: LOX IMVI
MOLT-4 = tested on: MOLT-4
NCI-H23 = tested on: NCI-H23
OVCAR-8 = tested on: OVCAR-8
RPMI-8226 = tested on: RPMI-8226
SF-268 = tested on: SF-268
SF-295 = tested on: SF-295
SNB-75 = tested on: SNB-75
SW-620 = tested on: SW-620
TK-10 = tested on: TK-10
U-251 = tested on: U-251
UACC-62 = tested on: UACC-62
UO-31 = tested on: UO-31
SR = tested on: SR

Row | SMILES | GI50 (786-0) | GI50 (HL-60) | GI50 (HOP-92) | GI50 (KM12) | GI50 (LOX IMVI) | GI50 (MOLT-4) | GI50 (NCI-H23) | GI50 (OVCAR-8) | GI50 (RPMI-8226) | GI50 (SF-268) | GI50 (SF-295) | GI50 (SNB-75) | GI50 (SW-620) | GI50 (TK-10) | GI50 (U-251) | GI50 (UACC-62) | GI50 (UO-31) | GI50 (SR)
1 | CC(=O)NNc1nc(C)c(C(/C=C/c2ccc(/C=C/C(=N\NC(=O)c3ccncc3)c3sc(NNC(C)=O)nc3C)cc2)=N/NC(=O)c2ccncc2)s1 | > 100 µM (inactive) | > 100 µM (inactive) | 54 µM (inactive) | > 100 µM (inactive) | > 100 µM (inactive) | > 100 µM (inactive) | > 100 µM (inactive) | > 100 µM (inactive) | > 100 µM (inactive) | > 100 µM (inactive) | > 100 µM (inactive) | > 100 µM (inactive) | > 100 µM (inactive) | > 100 µM (inactive) | > 100 µM (inactive) | > 100 µM (inactive) | > 100 µM (inactive) | 
2 | Cc1ccc(S(=O)(=O)N/N=C(\c2nc3ccc([N+](=O)[O-])cc3[nH]c2=O)C(O)c2ccc([N+](=O)[O-])cc2)cc1 (stereo not drawn) | > 100 µM (inactive) | 10 µM (inactive) | > 100 µM (inactive) |  | 23.8 µM (inactive) | 29.4 µM (inactive) | > 100 µM (inactive) | > 100 µM (inactive) | 21.6 µM (inactive) | 63.5 µM (inactive) | > 100 µM (inactive) | > 100 µM (inactive) | > 100 µM (inactive) | > 100 µM (inactive) | > 100 µM (inactive) | 85.5 µM (inactive) | 56.9 µM (inactive) | 
3 | CCOC(=O)C(Oc1ccc(OC)c2c1C(=O)CCC2)c1ccccc1 (stereo not drawn) | > 100 µM (inactive) | 49 µM (inactive) |  | > 100 µM (inactive) | > 100 µM (inactive) | 33.7 µM (inactive) | 25.5 µM (inactive) | > 100 µM (inactive) | 45.9 µM (inactive) | > 100 µM (inactive) | 69.5 µM (inactive) |  | > 100 µM (inactive) | > 100 µM (inactive) | > 100 µM (inactive) | 69.3 µM (inactive) | 53.2 µM (inactive) | 
4 | CS(=O)(=O)OCCN1CCN(C(=O)c2cccc3c(Nc4ccc(S(=O)(=O)N=C(N)N)cc4)c4ccccc4nc23)CC1 | > 100 µM (inactive) | > 100 µM (inactive) | > 100 µM (inactive) | > 100 µM (inactive) |  | > 100 µM (inactive) | > 100 µM (inactive) | > 100 µM (inactive) | > 100 µM (inactive) | > 100 µM (inactive) | > 100 µM (inactive) | > 100 µM (inactive) |  | > 100 µM (inactive) | > 100 µM (inactive) | > 100 µM (inactive) | > 100 µM (inactive) | 
5 | C/C(CC(=O)Nc1cccc([N+](=O)[O-])c1)=N/NC(N)=S | > 100 µM (inactive) | > 100 µM (inactive) | > 100 µM (inactive) | > 100 µM (inactive) | > 100 µM (inactive) | > 100 µM (inactive) | > 100 µM (inactive) | > 100 µM (inactive) | > 100 µM (inactive) | > 100 µM (inactive) | > 100 µM (inactive) | > 100 µM (inactive) | > 100 µM (inactive) | > 100 µM (inactive) | > 100 µM (inactive) | > 100 µM (inactive) | > 100 µM (inactive) | 
6 | COC1=CC(=O)c2ccc(C(C)C)cc2C1(C)C1=NC(C)(C)CO1 (stereo not drawn) | > 100 µM (inactive) | 63 µM (inactive) | 86.7 µM (inactive) | > 100 µM (inactive) |  | 81.7 µM (inactive) | > 100 µM (inactive) | > 100 µM (inactive) | 41.4 µM (inactive) | > 100 µM (inactive) | > 100 µM (inactive) | 80.5 µM (inactive) | > 100 µM (inactive) | > 100 µM (inactive) | > 100 µM (inactive) | > 100 µM (inactive) | > 100 µM (inactive) | 86.3 µM (inactive)
7 | Clc1cc(Cl)cc(Nc2nc3ccccc3nc2-c2cccs2)c1 | 17.9 µM (inactive) | 25.8 µM (inactive) | 12.4 µM (inactive) |  | 94.6 µM (inactive) | 47.2 µM (inactive) | 28.8 µM (inactive) | 13.3 µM (inactive) | 40 µM (inactive) | 34 µM (inactive) | 22.1 µM (inactive) | 32.4 µM (inactive) | > 100 µM (inactive) | 37.9 µM (inactive) | > 10 µM (inactive) | > 10 µM (inactive) | 42.6 µM (inactive) | 51.2 µM (inactive)
8 | O=C1c2ccccc2C(=O)c2cc3c(cc21)C[S+]([O-])C3 | > 100 µM (inactive) | > 100 µM (inactive) | > 100 µM (inactive) | > 100 µM (inactive) | > 100 µM (inactive) | > 100 µM (inactive) | > 100 µM (inactive) | > 100 µM (inactive) | > 100 µM (inactive) | > 100 µM (inactive) | > 100 µM (inactive) | > 100 µM (inactive) | > 100 µM (inactive) | > 100 µM (inactive) | > 100 µM (inactive) | > 100 µM (inactive) | > 100 µM (inactive) | 
9 | N#CCC(=O)NC1C2CC3CC(C2)CC1C3 (stereo not drawn) | 19.5 µM (inactive) | 22.8 µM (inactive) | 18.3 µM (inactive) | 17.7 µM (inactive) | 10.7 µM (inactive) | 34 µM (inactive) | 16.6 µM (inactive) | 17.5 µM (inactive) | 34.6 µM (inactive) | 17.7 µM (inactive) | 16.7 µM (inactive) | 17.2 µM (inactive) | 25.4 µM (inactive) | 19.4 µM (inactive) | 16.2 µM (inactive) | 15.1 µM (inactive) | 49 µM (inactive) | 
10 | CN1C(=O)CC(c2cccc(C3CC(=O)N(C)C3=O)n2)C1=O (stereo not drawn) | > 100 µM (inactive) | > 100 µM (inactive) | > 100 µM (inactive) | > 100 µM (inactive) | > 100 µM (inactive) | > 100 µM (inactive) | > 100 µM (inactive) | > 100 µM (inactive) |  | > 100 µM (inactive) | > 100 µM (inactive) | > 100 µM (inactive) | > 100 µM (inactive) | > 100 µM (inactive) | > 100 µM (inactive) | > 100 µM (inactive) | > 100 µM (inactive) | > 100 µM (inactive)
11 | O=C(O)CN(c1ccccc1)S(=O)(=O)c1ccc([N+](=O)[O-])cc1 | > 100 µM (inactive) | > 100 µM (inactive) | > 100 µM (inactive) | > 100 µM (inactive) | > 100 µM (inactive) | > 100 µM (inactive) | > 100 µM (inactive) | > 100 µM (inactive) | > 100 µM (inactive) |  | > 100 µM (inactive) |  | > 100 µM (inactive) | > 100 µM (inactive) | > 100 µM (inactive) | > 100 µM (inactive) | > 100 µM (inactive) | 
12 | Nc1c(-c2ccc(-c3c(N)[n+]([O-])c4ccccc4[n+]3[O-])cc2)[n+]([O-])c2ccccc2[n+]1[O-] | 13.5 µM (inactive) | 13.9 µM (inactive) | > 100 µM (inactive) | 11.1 µM (inactive) | 9.75 µM (inactive) | 33.3 µM (inactive) | 6.21 µM (inactive) | 18.9 µM (inactive) | 23.8 µM (inactive) | 17.2 µM (inactive) | 16 µM (inactive) | 8.15 µM (inactive) | 4.5 µM (inactive) | 17.6 µM (inactive) | 14.7 µM (inactive) | 10.2 µM (inactive) | 16.4 µM (inactive) | 
13 | CSCCC(C(=O)O)N(CC1(O)OCC(O)C(O)C1O)N=O (stereo not drawn) | > 100 µM (inactive) | > 100 µM (inactive) | > 100 µM (inactive) | > 100 µM (inactive) | > 100 µM (inactive) | > 100 µM (inactive) | > 100 µM (inactive) | > 100 µM (inactive) | > 100 µM (inactive) |  |  | > 100 µM (inactive) | > 100 µM (inactive) | > 100 µM (inactive) | > 100 µM (inactive) | > 100 µM (inactive) | > 100 µM (inactive) | 
14 | CN1N=C2c3ccccc3OC(c3ccccc3)[C@H]2C1c1ccccc1 (stereo partly drawn) | > 100 µM (inactive) | 37.3 µM (inactive) | 32.7 µM (inactive) | > 100 µM (inactive) | > 100 µM (inactive) | 35.2 µM (inactive) | 79.4 µM (inactive) | > 100 µM (inactive) | 89.7 µM (inactive) | > 100 µM (inactive) | 90.4 µM (inactive) |  | > 100 µM (inactive) | > 100 µM (inactive) | > 100 µM (inactive) | > 100 µM (inactive) | 61.1 µM (inactive) | > 100 µM (inactive)
15 | FC(F)(F)c1ccc2nc(Nc3ccc(Cl)c(Cl)c3)c(-c3ccccc3)nc2c1 | 12.1 µM (inactive) | 8.57 µM (inactive) | 46.7 µM (inactive) |  | 13.8 µM (inactive) | 6.81 µM (inactive) | > 100 µM (inactive) | 21 µM (inactive) | > 100 µM (inactive) | 14.6 µM (inactive) | 18.7 µM (inactive) |  | 33.4 µM (inactive) | 73.1 µM (inactive) | 7.16 µM (inactive) |  | > 100 µM (inactive) | 6.64 µM (inactive)
16 | CC(=O)NC(CCCCNC(=O)N(C)N=O)C(=O)NCc1ccccc1 (stereo not drawn) | > 100 µM (inactive) |  | > 100 µM (inactive) | > 100 µM (inactive) | > 100 µM (inactive) | > 100 µM (inactive) | > 100 µM (inactive) | > 100 µM (inactive) | > 100 µM (inactive) | > 100 µM (inactive) | > 100 µM (inactive) | 43.4 µM (inactive) | > 100 µM (inactive) | > 100 µM (inactive) | > 100 µM (inactive) | > 100 µM (inactive) | > 100 µM (inactive) | 
17 | CCN(CC)CCCNc1nccc2c(C)c3c(cc12)c1cnccc1n3C | 0.0927 µM (active) |  |  |  | 0.0711 µM (active) | < 0.01 µM (active) | 0.179 µM (active) | 0.0692 µM (active) |  | 0.294 µM (active) | 0.206 µM (active) | 0.427 µM (active) | 0.0233 µM (active) | 0.444 µM (active) | 0.367 µM (active) | 0.891 µM (active) | 0.748 µM (active) | 
